Measurements published in patent publication US20080249303A1 (WYETH, priority 2007, published 2008).

Tests used:
[1] = Bazedoxifene acetate recovery in different extraction media, XRD peak area after tablet extraction; type: physicochemical; details: 1.0 mL/tablet, XRD peak at 12.8° (Form A)
Method: The coatings of three of the tablets were removed. The resulting tablets were then placed in a small beaker. About 3.0 ml of extraction medium solution was added to the beaker to produce a mixture. The mixture was broken up and stirred for about 5 to about 15 minutes. The resulting mixture was filtered and washed with an additional 3.0 ml of extraction medium solution three times to produce a solid (filtrand). The recovered solid was dried at about 40° C. overnight. The dried solid was grinded and pressed into pellets for XRD measurement. This procedure can be scaled up or down for various quantities of BZA tablets. This procedure was employed for the samples found in Table 1.
X-Ray Powder Diffraction analyses were carried out on samples prepared according to Examples 1 and 2 using a Bruker D8 Discover X-ray diffractometer with GADDS. The diffractometer power was set at 40 kV and 40 mA. The collimator diameter of the instrument was about 0.8 mm and the detector-to-sample distance was set at about 30 cm. The X-ray incident angle relative to the pellet/tablet surface was about 40 and the detection angle relative to the pellet/tablet surface was about 16±0.2°. Data were collected at about 120 minutes to about 240 minutes.
The following table illustrates the results of experiments using the extraction methods of Example 1. The extractions were performed using different extraction media and the results were measured in terms of peak area of bazedoxifene using XRD as described in Example 3.

[2] = as above; type: physicochemical; details: XRD peak at 12.8° (Form A)

Peak Area of Bazedoxifene ([1]; Experiment 6, 0.50 M Ammonium Acetate, pH 6.20): 22.7 count · degree | Peak Area of Bazedoxifene ([1]; Experiment 7, 0.125 M Ammonium Acetate + 0.375 M Sodium Acetate, pH 6.85): 23.1 count · degree | Peak Area of Bazedoxifene ([1]; Experiment 8, 0.05 M Ammonium Acetate + 0.45 M Sodium Acetate, pH 7.18): 32.0 count · degree | Peak Area of Bazedoxifene ([1]; Experiment 9, 0.50 M Sodium Acetate, pH 8.34): 36.2 count · degree | Peak Area of Bazedoxifene ([1]; Experiment 10, 0.50 M Sodium Chloride, pH 9.20 adjusted by Sodium Hydroxide): 21.8 count · degree | Peak Area of Bazedoxifene ([2]; Experiment 1, Millipore Water, pH 5.9, 2.50 mL/tablet): 3.3 count · degree | Peak Area of Bazedoxifene ([2]; Experiment 2, Millipore Water, pH 5.9, 1.67 mL/tablet): 4.9 count · degree | Peak Area of Bazedoxifene ([2]; Experiment 3, Diluted Acetic Acid, pH 1.96, 2.50 mL/tablet): No Detection | Peak Area of Bazedoxifene ([2]; Experiment 5, Millipore Water, pH 5.9, 0.83 mL/tablet): 11.6 count · degree
Compound: Cc1c(-c2ccc(O)cc2)n(Cc2ccc(OCCN3CCCCCC3)cc2)c2ccc(O)cc12 [Bazedoxifene acetate, 1-[4-(2-azepan-1-yl-ethoxy)-benzyl]-2-(4-hydroxy-phenyl)-3-methyl-1H-indol-5-ol acetic acid]
